Test results from patent publication US20080255183A1, “N-[HETEROARYLCARBONYL]-3-THIENYL-L-ALANINE DERIVATIVES AS a5beta1 ANTAGONISTS” (ASTRAZENECA AB, priority 2007, published 2008).
pIC50: −log10 of the molar value. Where two headings read alike, the source gives them in different places.

Columns and labels:
[1] = system: α5β1 integrin mediated adhesion of K562 cells; assay: In vitro cell adhesion assay (b): inhibition of α5β1 integrin mediated adhesion of K562 cells to fibronectin fragment Fn9-10; assay type: cell-based, human
Text: The assay determined the ability of compounds to inhibit the α5β1 integrin mediated adhesion of K562 cells to the ligand, a fragment of human fibronectin. The human K562 erythroleukaemia cell line (LGC Promochem, Teddington, Middlesex, UK, Catalogue No. CCL-243) was routinely maintained in RPMI 1640 medium (Sigma-Aldrich Company Ltd, Gillingham, Dorset SP8 4XT, Catalogue No. R0883) containing 10% heat-inactivated foetal calf serum (PAA lab GmbH, Pasching, Austria Catalogue No. PAA-A15-043) and 1% glutamax-1 (Invitrogen Ltd. Paisley, UK Catalogue No. 35050-038) at 37° C. with 5% CO2 at densities between 1×10^5 and 1×10^6 cells/ml.
A DNA fragment encoding the domains 9-10 (amino-acids 1325-1509) of human fibronectin (Swiss-Prot Accession No. P02751) was isolated from cDNA libraries using standard molecular biology and PCR cloning techniques. The cDNA fragment was sub-cloned into a pT7#3.3 expression vector containing a GST-epitope tag (developed at AstraZeneca; Bagnall et al., Protein Expression and Purification, 2003, 27: 1-11), and the fragment termed Fn9-10. Following expression in E. coli, the expressed protein was purified using the GST-tag using standard purification techniques.
For adhesion assay, a 96-well flat bottomed plate (Greiner Bio one ltd., Gloucester GL10 3SX Catalogue No. 655101) was coated overnight at 4° C. with 100 μl of 20 μg/ml Fn9-10 ligand in Dulbecco's PBS (Gibco#14190-94). The plate was then washed twice with 200 μl of PBS and blocked with 100 μl of 3% BSA (SigmaA7888) in PBS for 1 hour at 37° C. The plates were then washed again 3 times with 200 μl of PBS and left empty.
Test compounds were prepared as 10 mM stock solutions in DMSO (Sigma-Aldrich Company Ltd, Gillingham, Dorset SP8 4XT Catalogue No. 154938) and serially diluted with HBSS (Hanks Buffered Salt solution (Gibco Catalogue No. 14170-088)/2% DMSO to give a range of test concentrations at twice required final concentration. Aliquots (50 μl) of each compound dilution were placed into each well of the Fn9-10 coated plates. Each plate also contained control wells: maximum adhesion signal was created using wells containing 50 μl HBSS/2% DMSO, and minimum signal corresponding to no adhesion was created using wells containing 50 μl HBSS/2% DMSO/20 mM EDTA (Sigma Catalogue No. E7889).
The K562 cells were cultured to 1×10^6 cells/ml, and each culture suspension pooled. Cells were centrifuged at 1200 rpm for 2 mins, and the pellets washed with HBSS followed by HBSS/50 mM HEPES (Sigma Catalogue No. H0887). Cell pellets were pooled and re-suspended in HBSS/0.4 mM manganese chloride/50 mM HEPES (MnCl; Sigma Catalogue No. M1787) to give a final concentration of 4×10^6 cells/ml.
The assay was initiated by the addition of 50 μl of cell suspension into each coated well (200,000 cells/well), thus resulting in final desired compound concentration and a final MnCl concentration of 0.2 mM. The plates were incubated for 45 minutes at 37° C. 5% CO2. After this time, the solution was flicked off as waste, and the remaining cell layer carefully washed twice with 200 μl of PBS, and then fixed with 200 μl of 100% ethanol for 30 minutes.
After fixation, the ethanol was flicked off to waste and 100 μl of 0.1% Crystal violet stain was added to each well, and incubated at ambient temperature for 15 minutes. Excess stain was removed by rinsing 3 times under cold slow running water. The plates were blotted over tissue then solubilised by adding 50 μl of 1% Triton X100 (Sigma Catalogue No. T9284) and shaking at 500 rpm for 30 mins on plate shaker. Finally, 100 μl of deionised water was added to each well and the absorbance was determined at 590 nm on a spectrophotometer. The minimum value was subtracted from all values, and the absorbance signal was plotted against compound concentration to generate IC50 data.

[2] = target: recombinant human α5β1 integrin (Homo sapiens, UniProt P05556+P08648); assay: In vitro binding assay (a): inhibition of binding of α5β1 integrin to a fragment of human fibronectin (Fn9-10), Origen electrochemiluminescence; conditions: geometric mean of the measured IC50 values; n given below each value
Sequence of recombinant human α5β1 integrin (P08648 42-894 limits assumed): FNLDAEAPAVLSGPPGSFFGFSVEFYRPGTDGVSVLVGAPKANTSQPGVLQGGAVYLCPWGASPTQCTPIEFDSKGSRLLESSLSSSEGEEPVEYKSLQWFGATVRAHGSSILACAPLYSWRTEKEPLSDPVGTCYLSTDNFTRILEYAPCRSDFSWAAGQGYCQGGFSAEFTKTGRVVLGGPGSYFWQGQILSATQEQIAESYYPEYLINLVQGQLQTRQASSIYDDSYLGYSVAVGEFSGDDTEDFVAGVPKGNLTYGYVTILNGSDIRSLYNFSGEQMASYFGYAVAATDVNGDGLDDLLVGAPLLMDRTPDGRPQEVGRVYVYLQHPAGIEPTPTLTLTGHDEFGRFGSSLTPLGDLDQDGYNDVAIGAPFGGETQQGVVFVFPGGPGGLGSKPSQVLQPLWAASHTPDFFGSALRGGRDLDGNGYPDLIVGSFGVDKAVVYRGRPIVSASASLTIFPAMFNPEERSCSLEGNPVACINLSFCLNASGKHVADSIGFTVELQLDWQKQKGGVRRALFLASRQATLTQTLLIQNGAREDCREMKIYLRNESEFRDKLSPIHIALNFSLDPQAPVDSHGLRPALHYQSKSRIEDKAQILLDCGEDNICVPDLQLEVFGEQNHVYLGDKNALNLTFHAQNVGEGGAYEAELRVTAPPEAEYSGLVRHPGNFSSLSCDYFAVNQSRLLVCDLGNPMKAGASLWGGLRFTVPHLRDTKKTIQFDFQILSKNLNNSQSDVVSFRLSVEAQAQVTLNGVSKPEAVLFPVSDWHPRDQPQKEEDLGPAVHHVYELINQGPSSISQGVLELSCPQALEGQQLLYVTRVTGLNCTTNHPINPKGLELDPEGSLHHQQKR
Sequence of recombinant human α5β1 integrin (P08648 895-1049 partner limits assumed): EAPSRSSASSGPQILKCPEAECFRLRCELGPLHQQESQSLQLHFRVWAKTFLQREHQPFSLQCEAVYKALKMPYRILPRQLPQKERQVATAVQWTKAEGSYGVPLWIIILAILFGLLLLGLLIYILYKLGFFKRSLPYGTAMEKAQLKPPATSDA
Sequence of recombinant human α5β1 integrin (P05556 21-798): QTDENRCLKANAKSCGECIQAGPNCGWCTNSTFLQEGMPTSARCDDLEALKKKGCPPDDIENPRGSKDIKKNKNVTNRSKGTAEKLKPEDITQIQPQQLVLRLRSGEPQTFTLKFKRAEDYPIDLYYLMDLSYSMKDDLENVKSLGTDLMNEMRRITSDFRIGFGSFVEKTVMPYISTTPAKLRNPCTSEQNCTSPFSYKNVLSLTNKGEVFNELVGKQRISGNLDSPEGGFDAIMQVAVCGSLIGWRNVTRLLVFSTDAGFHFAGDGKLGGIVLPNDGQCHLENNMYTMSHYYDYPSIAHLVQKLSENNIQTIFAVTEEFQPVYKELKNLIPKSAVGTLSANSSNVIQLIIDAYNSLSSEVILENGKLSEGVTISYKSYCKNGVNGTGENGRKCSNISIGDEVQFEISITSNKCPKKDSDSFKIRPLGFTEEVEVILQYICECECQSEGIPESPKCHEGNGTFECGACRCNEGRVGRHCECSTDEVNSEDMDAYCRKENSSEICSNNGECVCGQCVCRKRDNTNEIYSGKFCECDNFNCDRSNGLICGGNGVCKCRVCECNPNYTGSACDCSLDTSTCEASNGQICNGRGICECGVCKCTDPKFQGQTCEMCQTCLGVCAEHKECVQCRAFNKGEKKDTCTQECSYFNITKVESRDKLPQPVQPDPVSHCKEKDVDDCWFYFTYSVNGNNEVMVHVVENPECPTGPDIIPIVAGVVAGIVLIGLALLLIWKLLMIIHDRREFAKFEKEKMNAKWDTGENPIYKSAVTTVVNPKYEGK
Text: The assay determined the ability of compounds to inhibit binding of α5β1 integrin to a cognate ligand, a fragment of human fibronectin. The assay used Origen technology (IGEN International) to measure the compound activity. Briefly, α5β1 integrin was coated onto epoxy-paramagnetic beads (Dynal Biotech UK, Bromborough, Wirral, CH62 3QL, UK, Catalogue No 140.11) and biotinylated-fibronectin ligand was coupled to strepatividin labeled Tag-NHS-Ester (BioVeris Corporation, Witney, Oxfordshire, OX28 4GE, UK, Catalogue No 110034). The ruthenium-labeled tag emits an electrochemiluminescence signal upon stimulation which is detected by the Origen reader. Thus, interaction of integrin and ligand causes association of bead and tag, and the resulting electrochemiluminescence signal reflects the level of integrin interaction with fibronectin.
20 μg of recombinant human α5β1 was coated onto 4×10(7) epoxy-paramagnetic beads according to manufacturers instructions at 4° C. for 24 hours. Integrin coating and corresponding activity was subsequently measured for each batch but typically, 25 ng of coated protein was used per assay well.
A DNA fragment encoding the domains 9-10 (amino-acids 1325-1509) of human fibronectin (Swiss-Prot Accession No. P02751) was isolated from cDNA libraries using standard molecular biology and PCR cloning techniques. The cDNA fragment was sub-cloned into a pT73.3 expression vector containing a GST-epitope tag (developed at AstraZeneca; Bagnall et al., Protein Expression and Purification, 2003, 27: 1-11). Following expression in E. coli, the expressed protein, termed Fn9-10, was purified using the GST-tag using standard purification techniques. The recombinant Fn9-10 was subsequently biotinylated using a EZ-link Sulfo-NHS-LC-Biotinylation kit (Perbio Science UK Ltd., Cramlington, Northumberland, NE231WA, UK, Catalogue No. 21335) and made to give a final concentration of approximately 1 mg/mil. Tag-NHS-Ester was labeled with streptavidin by incubation at room temperature following manufacturers instructions and buffer-exchanged into PBS to give a concentration of 0.5 mg/ml. Immediately prior to the assay, biotinylated-Fn9-10 and Streptavidin-labeled Tag were diluted in Assay Buffer to give a final concentrations of 0.6 ug/ml and 1.5 ug/ml respectively. The Fn9-10 and Tag solutions were then mixed together in equal volumes and incubated on ice for at least 30 minutes prior to the assay.
Test compounds were prepared as 10 mM stock solutions in DMSO (Sigma-Aldrich Company Ltd, Gillingham, Dorset SP8 4XT Catalogue No. 154938) and serially diluted with 4% DMSO to give a range of test concentrations at ×4 required final concentration. Aliquots (20 μl) of each compound dilution were placed into each well of a 384-well round bottomed polypropylene plate (Matrix Technologies, Wilmslow, Cheshire, SK9 3LP, Catalogue No. 4340 384). Each plate also contained control wells: maximum signal was created using wells containing 20 μl of 4% DMSO, and minimum signal corresponding to no binding was created using wells containing 20 μl of 80 mM EDTA (Sigma Catalogue No. E7889).
For the assay, 25 ng (20 ul) of a5b1-bead suspension and […] of the Fn9-10/Tag pre-incubated solution were added to each well containing 20 μl of compound or control solution. Assay plates were then incubated at room temperature for a minimum of 6 hours before being analysed on an Origen plate reader. […]

[3] = Homo sapiens, K562, geometric mean of the measured IC50 values, n given below each value, read-out: Adhesion Assay (b) IC50

Row | SMILES | pIC50 [1, 3] | pIC50 [2] | pIC50 ([1]; Homo sapiens, K562, single determinations listed in brackets under the geometric mean (n = 3), read-out: Adhesion Assay (b) IC50, individual measured values) | pIC50 ([1]; single determinations listed in brackets under the geometric mean (n = 3), read-out: Adhesion Assay (b) IC50, individual measured values)
1 | Cc1noc(C)c1C(=O)N[C@@H](Cc1ccc(CCCc2ccc3c(n2)NCCC3)s1)C(=O)O [Example 2, N-[(3,5-dimethylisoxazol-4-yl)carbonyl]-3-{5-[3-(5,6,7,8-tetrahydro-1,8-naphthyridin-2-yl)propyl]thiophen-2-yl}-L-alanine] | 7.92 | > 9.00 |  | 
2 | O=C(N[C@@H](Cc1ccc(CCCc2ccc3c(n2)NCCC3)s1)C(=O)O)c1c(Cl)cncc1Cl [Example 3, N-(3,5-dichloroisonicotinoyl)-3-{5-[3-(5,6,7,8-tetrahydro-1,8-naphthyridin-2-yl)propyl]-thiophen-2-yl}-L-alanine] | > 8.40 | 9.52 | 8.30 | > 8.52
3 | O=C(N[C@@H](Cc1ccc(OCCc2ccc3c(n2)NCCC3)s1)C(=O)O)c1c(Cl)cncc1Cl [Example 4, N-(3,5-dichloroisonicotinoyl)-3-{5-[2-(5,6,7,8-tetrahydro-1,8-naphthyridin-2-yl)ethoxy]-2-thienyl}-L-alanine] | > 8.52 | > 9.00 |  | 

Second part, the compound after the results:

Row | pIC50 [1, 3] | pIC50 [2] | pIC50 ([1]; Homo sapiens, K562, single determinations listed in brackets under the geometric mean (n = 3), read-out: Adhesion Assay (b) IC50, individual measured values) | pIC50 ([1]; single determinations listed in brackets under the geometric mean (n = 3), read-out: Adhesion Assay (b) IC50, individual measured values) | SMILES
4 | 7.57 | 8.40 |  |  | CNc1cccc(CCCc2ccc(C[C@H](NC(=O)c3c(C)noc3C)C(=O)O)s2)n1 [Example 1.1, N-[(3,5-dimethylisoxazol-4-yl)carbonyl]-3-(5-{3-[6-(methylamino)pyridin-2-yl]propyl}thiophen-2-yl)-L-alanine]
5 | 8.10 | 9.00 |  |  | CNc1cccc(CCCc2ccc(C[C@H](NC(=O)c3c(Cl)cncc3Cl)C(=O)O)s2)n1 [Example 1.2, N-[(3,5-dichloropyridin-4-yl)carbonyl]-3-(5-{3-[6-(methylamino)pyridin-2-yl]propyl}thiophen-2-yl)-L-alanine]
